pIC50: −log10 of the molar value.
test system: BXPC-3; assay: Cytotoxicity against human BXPC-3 cells assessed as inhibition of cell growth incubated for 72 hrs by MTT assay; type: functional, cell-based; settings: BXPC-3, 72 h

| Structure (SMILES) | pIC50 |
| --- | --- |
| Cc1cnc(C(=O)Nc2cc(OCCN)cc3cccnc23)cn1 | < 5.00 |
| O=C(Nc1cc(OCCC2CCNCC2)cc2cccnc12)c1ncccn1 | < 5.00 |
| COc1cc(NC(=O)c2cnccn2)c2ncccc2c1 | 6.33 |
| O=C(Nc1cc(F)cc2cccnc12)c1ncccn1 | < 5.00 |
| CC(C)(C)OC(=O)C1CCN(CCOc2cc(NC(=O)c3cnccn3)c3ncccc3c2)CC1 | 5.48 |
| Cc1cnc(C(=O)Nc2ccc3ncccc3c2)cn1 | < 5.00 |
| O=C(Nc1ccc(Br)c2cccnc12)c1cnccn1 | 5.12 |
| O=C(Nc1cc(OCCF)cc2cccnc12)c1cnccn1 | 5.36 |
| COc1cc(NC(=O)c2ncccn2)c2ncccc2c1 | < 5.00 |
| Cc1cnc(C(=O)Nc2cccc3cccnc23)cn1 | 5.03 |
| Cc1cnc(C(=O)Nc2ccc(Br)c3cccnc23)cn1 | < 5.00 |
| Cc1cnc(C(=O)Nc2cc(OCCN(C)C)cc3cccnc23)cn1 | 5.01 |
| CN(C)CCOc1cc(NC(=O)c2cnccn2)c2ncccc2c1 | < 5.00 |
| NCCOc1cc(NC(=O)c2cnccn2)c2ncccc2c1 | < 5.00 |
| NCCOc1cc(NC(=O)c2ncccn2)c2ncccc2c1 | < 5.00 |
| O=C(Nc1nccc2cccnc12)c1cnccn1 | 5.14 |
| Cc1ccc2cccc(NC(=O)c3cnccn3)c2n1 | < 5.00 |
| CN(C)Cc1ccc2cccc(NC(=O)c3cnccn3)c2n1 | < 5.00 |
| O=C(Nc1cccc2cccnc12)c1ccc(Br)nc1 | < 5.00 |
| O=C(Nc1cccc2cccnc12)c1cccc(Br)n1 | < 5.00 |
| CC(C)(C)OC(=O)NCCOc1cc(NC(=O)c2cnccn2)c2ncccc2c1 | 5.04 |
| O=C(Nc1cccc2cccnc12)c1ccc(Br)cn1 | < 5.00 |
| O=C(Nc1cc(F)cc2cccnc12)c1cnccn1 | < 5.00 |

test system: MIA PaCa-2; assay: Cytotoxicity against human MIA PaCa-2 cells assessed as inhibition of cell growth incubated for 72 hrs by MTT assay; type: functional, cell-based; settings: MIA PaCa-2, 72 h

| Structure (SMILES) | pIC50 |
| --- | --- |
| Cc1cnc(C(=O)Nc2cc(OCCN)cc3cccnc23)cn1 | < 5.00 |
| O=C(Nc1cc(OCCC2CCNCC2)cc2cccnc12)c1ncccn1 | < 5.00 |
| COc1cc(NC(=O)c2cnccn2)c2ncccc2c1 | 6.33 |
| O=C(Nc1cc(F)cc2cccnc12)c1ncccn1 | 6.52 |
| CC(C)(C)OC(=O)C1CCN(CCOc2cc(NC(=O)c3cnccn3)c3ncccc3c2)CC1 | 5.44 |
| Cc1cnc(C(=O)Nc2ccc3ncccc3c2)cn1 | < 5.00 |
| O=C(Nc1ccc(Br)c2cccnc12)c1cnccn1 | 6.12 |
| O=C(Nc1cc(OCCF)cc2cccnc12)c1cnccn1 | 6.43 |
| COc1cc(NC(=O)c2ncccn2)c2ncccc2c1 | 5.89 |
| Cc1cnc(C(=O)Nc2cccc3cccnc23)cn1 | 6.30 |
| Cc1cnc(C(=O)Nc2ccc(Br)c3cccnc23)cn1 | 5.66 |
| Cc1cnc(C(=O)Nc2cc(OCCN(C)C)cc3cccnc23)cn1 | 5.74 |
| CN(C)CCOc1cc(NC(=O)c2cnccn2)c2ncccc2c1 | < 5.00 |
| NCCOc1cc(NC(=O)c2cnccn2)c2ncccc2c1 | < 5.00 |
| NCCOc1cc(NC(=O)c2ncccn2)c2ncccc2c1 | < 5.00 |
| O=C(Nc1nccc2cccnc12)c1cnccn1 | 5.11 |
| Cc1ccc2cccc(NC(=O)c3cnccn3)c2n1 | < 5.00 |
| CN(C)Cc1ccc2cccc(NC(=O)c3cnccn3)c2n1 | < 5.00 |
| O=C(Nc1cccc2cccnc12)c1ccc(Br)nc1 | < 5.00 |
| O=C(Nc1cccc2cccnc12)c1cccc(Br)n1 | < 5.00 |
| CC(C)(C)OC(=O)NCCOc1cc(NC(=O)c2cnccn2)c2ncccc2c1 | 6.06 |
| O=C(Nc1cccc2cccnc12)c1ccc(Br)cn1 | 5.74 |
| O=C(Nc1cc(F)cc2cccnc12)c1cnccn1 | 6.89 |

test system: PANC-1; assay: Cytotoxicity against human PANC-1 cells assessed as inhibition of cell growth incubated for 72 hrs by MTT assay; type: functional, cell-based; settings: PANC-1, 72 h

| Structure (SMILES) | pIC50 |
| --- | --- |
| Cc1cnc(C(=O)Nc2cc(OCCN)cc3cccnc23)cn1 | < 5.00 |
| O=C(Nc1cc(OCCC2CCNCC2)cc2cccnc12)c1ncccn1 | < 5.00 |
| COc1cc(NC(=O)c2cnccn2)c2ncccc2c1 | 5.66 |
| O=C(Nc1cc(F)cc2cccnc12)c1ncccn1 | 5.28 |
| CC(C)(C)OC(=O)C1CCN(CCOc2cc(NC(=O)c3cnccn3)c3ncccc3c2)CC1 | 5.02 |
| Cc1cnc(C(=O)Nc2ccc3ncccc3c2)cn1 | < 5.00 |
| O=C(Nc1ccc(Br)c2cccnc12)c1cnccn1 | 5.15 |
| O=C(Nc1cc(OCCF)cc2cccnc12)c1cnccn1 | 6.28 |
| COc1cc(NC(=O)c2ncccn2)c2ncccc2c1 | 5.05 |
| Cc1cnc(C(=O)Nc2cccc3cccnc23)cn1 | 5.74 |
| Cc1cnc(C(=O)Nc2ccc(Br)c3cccnc23)cn1 | 5.17 |
| Cc1cnc(C(=O)Nc2cc(OCCN(C)C)cc3cccnc23)cn1 | 5.35 |
| CN(C)CCOc1cc(NC(=O)c2cnccn2)c2ncccc2c1 | < 5.00 |
| NCCOc1cc(NC(=O)c2cnccn2)c2ncccc2c1 | < 5.00 |
| NCCOc1cc(NC(=O)c2ncccn2)c2ncccc2c1 | < 5.00 |
| O=C(Nc1nccc2cccnc12)c1cnccn1 | 5.17 |
| Cc1ccc2cccc(NC(=O)c3cnccn3)c2n1 | < 5.00 |
| CN(C)Cc1ccc2cccc(NC(=O)c3cnccn3)c2n1 | < 5.00 |
| O=C(Nc1cccc2cccnc12)c1ccc(Br)nc1 | < 5.00 |
| O=C(Nc1cccc2cccnc12)c1cccc(Br)n1 | < 5.00 |
| CC(C)(C)OC(=O)NCCOc1cc(NC(=O)c2cnccn2)c2ncccc2c1 | 5.02 |
| O=C(Nc1cccc2cccnc12)c1ccc(Br)cn1 | 5.40 |
| O=C(Nc1cc(F)cc2cccnc12)c1cnccn1 | 6.17 |
